# Laboratory results taken from BindingDB's records for doi:10.3109/14756366.2011.643303 (Ondokuz Mayis University, 2013).
# Assays:
# Assay in all cases: Esterase Activity Assay
# Conditions in all cases: pH 7.4
# Carbonic anhydrase 3 = target: T1, Carbonic anhydrase 3 (Bos taurus, UniProt Q3SZX4)
# T1 sequence (Q3SZX4 whole entry): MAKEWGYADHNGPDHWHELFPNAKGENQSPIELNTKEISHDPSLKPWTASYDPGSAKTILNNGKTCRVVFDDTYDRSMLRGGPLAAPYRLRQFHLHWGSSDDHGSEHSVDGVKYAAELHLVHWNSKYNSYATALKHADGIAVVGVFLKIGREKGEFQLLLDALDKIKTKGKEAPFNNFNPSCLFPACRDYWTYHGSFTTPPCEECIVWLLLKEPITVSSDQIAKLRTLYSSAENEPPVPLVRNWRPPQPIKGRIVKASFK
# Carbonic anhydrase 2 = Carbonic anhydrase 2 (Homo sapiens, UniProt P00918)
# Carbonic anhydrase 4 = Carbonic anhydrase 4 (Homo sapiens, UniProt P22748)
# Carbonic anhydrase 4, sequence (P22748 whole entry): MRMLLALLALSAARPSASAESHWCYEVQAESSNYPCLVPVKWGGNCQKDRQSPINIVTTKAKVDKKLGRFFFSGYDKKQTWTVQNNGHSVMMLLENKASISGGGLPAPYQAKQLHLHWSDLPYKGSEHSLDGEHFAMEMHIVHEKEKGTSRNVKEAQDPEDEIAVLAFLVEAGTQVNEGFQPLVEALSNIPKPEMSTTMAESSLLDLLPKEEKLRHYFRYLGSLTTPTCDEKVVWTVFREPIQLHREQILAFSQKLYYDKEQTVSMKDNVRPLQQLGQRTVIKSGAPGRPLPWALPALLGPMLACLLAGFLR
# Carbonic anhydrase 1 = Carbonic anhydrase 1 (Homo sapiens, UniProt P00915)
# Carbonic anhydrase 1, sequence (P00915 whole entry): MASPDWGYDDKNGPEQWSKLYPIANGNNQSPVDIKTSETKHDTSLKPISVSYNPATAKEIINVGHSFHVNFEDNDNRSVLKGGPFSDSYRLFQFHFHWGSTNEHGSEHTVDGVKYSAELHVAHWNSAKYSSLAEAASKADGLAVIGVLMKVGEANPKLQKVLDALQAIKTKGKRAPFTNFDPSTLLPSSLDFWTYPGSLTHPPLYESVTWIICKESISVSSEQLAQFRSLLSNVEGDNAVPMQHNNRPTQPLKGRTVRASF
Structure (SMILES),Ki (Carbonic anhydrase 3) [µM],Ki (Carbonic anhydrase 2) [µM],Ki (Carbonic anhydrase 4) [µM],Ki (Carbonic anhydrase 1) [µM]
Oc1ccccc1,4.6,7.4,14.3,17.3
Oc1cccc(O)c1,219,9.4,634,828
"Oc1ccccc1O [1,2-Dihydroxybenzene, XI]",6.5,11.4,,
"O=c1c(O)c(-c2ccc(O)cc2O)oc2cc(O)cc(O)c12 [2-(2,4-dihydroxyphenyl)-3,5,7-trihydroxychromen-4-one]",21.3,4.4,15.7,12.8
"O=c1c(O)c(-c2ccc(O)c(O)c2)oc2cc(O)cc(O)c12 [2-(3,4-dihydroxyphenyl)-3,5,7-trihydroxy-chromone;hydrate]",9.1,2.4,13.8,3.6
"O=c1cc(-c2ccc(O)c(O)c2)oc2cc(O)cc(O)c12 [2-(3,4-dihydroxyphenyl)-5,7-dihydroxy-4H-chromen-4-one]",5.4,0.74,4.4,2.2
Oc1cc(O)c2c(c1)O[C@H](c1ccc(O)c(O)c1)[C@@H](O)C2 [(+)-Catechin],2.2,,5.6,6.8
"O=c1cc(-c2ccc(O)cc2)oc2cc(O)cc(O)c12 [Naringenin, 18]",11.6,2.7,9.1,4.1
